From BindingDB's records for doi:10.1021/jm0491039 (University of Washington At Seattle, 2005)

Tests used:
[1] = biological target: Protein farnesyltransferase/geranylgeranyltransferase type-1 subunit alpha (Rattus norvegicus, UniProt Q04631); test: PfPFT and Rat PFT IC50 Determination
Experimental: (§1) Assays for PFT activity were performed with a PFT-specific scintillation assay (SPA) kit (Amersham Biosciences, Piscataway, NJ). IC50 values were calculated using linear regression analysis of the plots of [3H] farnesyl pyrophosphate (FPP) prenylation versus concentration of compounds.

[2] = biological target: Protein farnesyltransferase/geranylgeranyltransferase type-1 subunit alpha / Protein farnesyltransferase subunit beta (Plasmodium falciparum, UniProt Q5EI73+Q5EI74); test: PfPFT and Rat PFT IC50 Determination; settings: pH 7.5; 37 °C
Experimental: as §1

Protein farnesyltransferase/geranylgeranyltransferase type-1 subunit alpha / Protein farnesyltransferase subunit beta, sequence (Q5EI73 1-521): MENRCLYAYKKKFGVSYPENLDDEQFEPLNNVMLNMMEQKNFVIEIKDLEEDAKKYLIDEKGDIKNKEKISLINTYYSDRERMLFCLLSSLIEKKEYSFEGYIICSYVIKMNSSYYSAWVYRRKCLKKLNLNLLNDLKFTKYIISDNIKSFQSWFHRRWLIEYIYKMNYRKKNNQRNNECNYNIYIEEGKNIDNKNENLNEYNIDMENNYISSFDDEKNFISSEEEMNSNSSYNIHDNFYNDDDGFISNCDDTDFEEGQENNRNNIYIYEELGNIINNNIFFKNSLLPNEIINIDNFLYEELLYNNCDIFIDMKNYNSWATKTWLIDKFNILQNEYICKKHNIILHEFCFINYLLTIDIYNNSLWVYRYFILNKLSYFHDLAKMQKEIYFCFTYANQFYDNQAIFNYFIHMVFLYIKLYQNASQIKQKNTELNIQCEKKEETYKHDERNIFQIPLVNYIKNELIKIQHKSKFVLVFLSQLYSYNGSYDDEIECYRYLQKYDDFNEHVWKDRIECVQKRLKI
Protein farnesyltransferase/geranylgeranyltransferase type-1 subunit alpha / Protein farnesyltransferase subunit beta, sequence (Q5EI74 1-923): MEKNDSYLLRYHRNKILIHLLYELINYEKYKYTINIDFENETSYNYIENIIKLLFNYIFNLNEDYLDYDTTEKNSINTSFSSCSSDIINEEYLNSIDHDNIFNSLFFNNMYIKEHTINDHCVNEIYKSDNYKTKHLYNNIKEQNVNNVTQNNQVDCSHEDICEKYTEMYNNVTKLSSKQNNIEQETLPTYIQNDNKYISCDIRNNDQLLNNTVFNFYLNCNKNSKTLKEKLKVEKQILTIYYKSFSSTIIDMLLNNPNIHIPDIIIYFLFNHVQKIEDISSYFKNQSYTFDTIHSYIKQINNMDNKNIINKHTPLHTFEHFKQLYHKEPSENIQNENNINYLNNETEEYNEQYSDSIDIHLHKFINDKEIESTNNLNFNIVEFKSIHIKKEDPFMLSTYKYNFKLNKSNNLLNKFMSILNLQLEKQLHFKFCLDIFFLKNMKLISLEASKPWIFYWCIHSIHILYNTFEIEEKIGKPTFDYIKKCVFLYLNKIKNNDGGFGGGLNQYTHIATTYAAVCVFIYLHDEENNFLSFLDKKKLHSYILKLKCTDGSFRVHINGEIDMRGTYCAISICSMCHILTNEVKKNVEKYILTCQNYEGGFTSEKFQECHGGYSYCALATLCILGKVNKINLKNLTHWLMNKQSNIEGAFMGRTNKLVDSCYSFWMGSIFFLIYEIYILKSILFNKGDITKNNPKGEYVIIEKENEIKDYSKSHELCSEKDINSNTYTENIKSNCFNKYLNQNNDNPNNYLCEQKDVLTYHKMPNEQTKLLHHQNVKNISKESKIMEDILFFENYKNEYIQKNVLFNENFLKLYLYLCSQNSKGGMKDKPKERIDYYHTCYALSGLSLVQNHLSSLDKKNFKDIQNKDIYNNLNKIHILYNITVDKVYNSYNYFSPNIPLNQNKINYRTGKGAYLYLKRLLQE

Structure (SMILES)	IC50 [1]	IC50 [2]
[C-]#[N+]c1ccc2c(c1)CC(N(CC(=O)NC(C)(C)C)S(=O)(=O)c1cccnc1)CN2Cc1cncn1C (stereo unspecified) [N-tert-Butyl-2-[[6-isocyano-1-(3-methyl-3H-imidazol-4-ylmethyl)-1,2,3,4-tetrahydroquinolin-3-yl]-(pyridine-3-sulfonyl)amino]acetamide]	6 nM	25 nM
[C-]#[N+]c1ccc2c(c1)CC(N(CC(=O)NC(C)(C)C)S(=O)(=O)c1ccncc1)CN2Cc1cncn1C (stereo unspecified) [N-tert-Butyl-2-[[6-isocyano-1-(3-methyl-3H-imidazol-4-ylmethyl)-1,2,3,4-tetrahydroquinolin-3-yl]-(pyridine-4-sulfonyl)amino]acetamide]	160 nM	1000 nM
[C-]#[N+]c1ccc2c(c1)CC(N(CC(=O)NC(C)(C)C)S(=O)(=O)c1ccccn1)CN2Cc1cncn1C (stereo unspecified) [N-tert-butyl-2-({6-isocyano-1-[(1-methyl-1H-imidazol-5-yl)methyl]-1,2,3,4-tetrahydroquinolin-3-yl}(pyridine-2-)sulfonamido)acetamide]	1.8 nM	1.4 nM
